Data on six compounds can be found in patent US9376387B2 (priority 2013, dated 2016).

Like-named read-outs stand apart in the source and are kept apart here.

Assay [1] deals with T1, hAChE (human erythrocyte membranes as a AChE source) (Homo sapiens, UniProt P22303).
T1 construct: human erythrocyte membranes as a AChE source; from tissue; host or cells: human erythrocyte membranes
The assay is described as follows: acetylcholinesterase (AChE) activity, modified Ellman method. The class given is biochemical. Conditions: acetylthiocholine iodide substrate, pH=7.4.

A further assay has as its target EqBuChE (Equus caballus, UniProt P81908). In words: biochemical.
Setting [2] is: hAChE IC50, modified Ellman method.

Chain of EqBuChE (P81908 whole entry): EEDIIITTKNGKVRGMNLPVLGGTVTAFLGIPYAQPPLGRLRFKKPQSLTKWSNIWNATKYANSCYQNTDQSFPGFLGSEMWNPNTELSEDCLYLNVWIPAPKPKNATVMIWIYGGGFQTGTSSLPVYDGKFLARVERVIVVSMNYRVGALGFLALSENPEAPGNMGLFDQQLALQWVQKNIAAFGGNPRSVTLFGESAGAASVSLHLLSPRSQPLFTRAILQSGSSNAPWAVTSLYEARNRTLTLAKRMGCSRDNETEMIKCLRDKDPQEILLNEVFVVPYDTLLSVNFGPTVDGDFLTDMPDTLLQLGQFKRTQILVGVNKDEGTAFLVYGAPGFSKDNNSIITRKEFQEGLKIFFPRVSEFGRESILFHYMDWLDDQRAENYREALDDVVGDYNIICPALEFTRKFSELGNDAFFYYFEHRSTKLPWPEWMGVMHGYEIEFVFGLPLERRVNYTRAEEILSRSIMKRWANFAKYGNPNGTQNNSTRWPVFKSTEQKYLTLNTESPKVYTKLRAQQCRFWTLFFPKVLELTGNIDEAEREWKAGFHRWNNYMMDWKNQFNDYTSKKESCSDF
T1 sequence (P22303 32-617 isoform P22303-2 limits assumed): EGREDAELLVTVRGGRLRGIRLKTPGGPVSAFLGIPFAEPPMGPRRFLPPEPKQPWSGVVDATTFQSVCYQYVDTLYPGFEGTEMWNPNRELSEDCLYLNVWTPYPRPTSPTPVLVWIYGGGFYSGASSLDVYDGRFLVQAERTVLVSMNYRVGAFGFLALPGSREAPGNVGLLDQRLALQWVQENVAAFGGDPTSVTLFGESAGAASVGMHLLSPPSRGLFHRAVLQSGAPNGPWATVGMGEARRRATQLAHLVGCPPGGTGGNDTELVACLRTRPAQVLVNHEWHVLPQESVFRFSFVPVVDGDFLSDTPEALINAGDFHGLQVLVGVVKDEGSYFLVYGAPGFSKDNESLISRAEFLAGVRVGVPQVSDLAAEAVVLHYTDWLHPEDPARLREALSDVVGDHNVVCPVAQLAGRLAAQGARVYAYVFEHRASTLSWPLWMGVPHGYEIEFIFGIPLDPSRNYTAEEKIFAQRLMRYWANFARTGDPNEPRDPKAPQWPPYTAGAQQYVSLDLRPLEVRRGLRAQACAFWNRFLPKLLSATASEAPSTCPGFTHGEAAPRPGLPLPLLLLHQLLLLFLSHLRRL

On to `COc1ccc2c(c1)CCC(Cc1cc[n+](Cc3ccc(C)cc3)cc1C(C)=O)C2=O` (stereo not drawn) [Compound 130, 2-[[3-acetyl-1-(p-tolylmethyl)pyridin-1-ium-4-yl]methyl]-6-methoxy-tetralin-1-one bromide], for which the values for the IC50 (in assay [1] (setting [2]); against EqBuChE (EqBuChE IC50)) were 556 nM and 4140 nM, respectively.

Turning to `CC(=O)c1c[n+](Cc2ccccc2C)ccc1CC1Cc2cc(C)c(C)cc2C1=O` (stereo not drawn) [Compound 152, 2-[[3-acetyl-1-(o-tolylmethyl)pyridin-1-ium-4-yl]methyl]-5,6-dimethyl-indan-1-one bromide], the IC50 in assay [1] (setting [2]) was 37.7 nM; on EqBuChE (EqBuChE IC50), 262 nM.

For `COc1cc2c(cc1OC)C(=O)C(Cc1cc[n+](Cc3ccccc3)cc1Br)C2` (stereo not drawn) [Compound 145, 2-[(1-benzyl-3-bromo-pyridin-1-ium-4-yl)methyl]-5,6-dimethoxy-indan-1-one bromide], the IC50 in assay [1] (modified Ellman method, read-out: hAChE IC50) came to 0.36 nM; at EqBuChE (read-out: EqBuChE IC50) it was 1790 nM.

`COc1cc2c(cc1OC)C(=O)C(Cc1cc[n+](Cc3cccc(Cl)c3)cc1C(C)=O)C2` (stereo not drawn) [Compound 144, 2-[[3-acetyl-1-[(3-chlorophenyl)methyl]pyridin-1-ium-4-yl]methyl]-5,6-dimethoxy-indan-1-one bromide]: the values for the half-inhibitory concentration (IC50) (in assay [1] (setting [2]); on EqBuChE (EqBuChE IC50)) were 3.2 nM and 3340 nM, respectively.

Turning to `COc1cc2c(cc1OC)C(=O)C(Cc1cc[n+](Cc3ccccc3Cl)cc1Br)C2` (stereo not drawn) [Compound 140, 2-[[3-bromo-1-[(2-chlorophenyl)methyl]pyridin-1-ium-4-yl]methyl]-5,6-dimethoxy-indan-1-one bromide], the 50% inhibitory concentration (IC50) in assay [1] (setting [2]) was determined as 0.255 nM; at EqBuChE (EqBuChE IC50), 984 nM.

With `COc1ccc2c(c1)CC(Cc1cc[n+](Cc3ccccc3C)cc1C(C)=O)C2=O` (stereo not drawn) [Compound 138, 2-[[3-acetyl-1-(o-tolylmethyl)pyridin-1-ium-4-yl]methyl]-5-methoxy-indan-1-one bromide], the figures for the half-maximal inhibitory concentration (IC50) (in assay [1] (setting [2]); at EqBuChE (EqBuChE IC50)) were 30 nM and 2990 nM, respectively.
